Laboratory results reported in patent US9011589B2, “Magenta dyes and their preparation methods and applications” (Dalian University of Technology, priority 2012, dated 2015).

What was measured:
Type in all cases: physicochemical
[1] = Evaluation of long-term stability of the dye in aqueous solvent systems; set-up: key: ∘: No precipitation; Δ: Slight precipitation; x: Notable; settings: 20 parts dye, 70 parts water, 10 parts ethylene glycol; 50° C. 7 d, then 0° C. 7 d; precipitation on filtering
Description: Heat and dissolve the system consisting of 20 parts of dyes, 70 parts of water and 10 parts of ethylene glycol; after the solution cools down, store it airtight at a constant temperature of 50° C. for 7 d; cool it to 0° C. and store it at the same temperature for 7 d; filter the solution and evaluate it in 3 grades based on the following benchmark: […]

[2] = Gas (ozone) resistance of the printed images; settings: grade of color difference ΔE; 40 ppm ozone, 60% RH, 24° C., 6 h
Description: Prepare the ink composition according to the formula described in Table 1 containing the products obtained in the above embodiment as the magenta colorant, and filter the ink composition with a […] membrane filter to obtain the aqueous magenta ink composition of the present invention. Add triethanolamine to adjust the ink composition pH to 8˜10 and add deionized water to make the total volume to reach 100 parts by weight. Use an ink-jet printer (Epson 270 manufactured by Epson Company), glossy photo paper (Epson) and the above described ink compositions for ink-jet printing. Place the printed images in the Ozone Weathering Test Chamber (manufactured by China Surui Company) at 40 ppm ozone, 60% RH and 24° C. for 6 h. Calculate the color difference (ΔE) before and after the test in the same manner as described in (1) above and evaluate it in 3 grades based on the following benchmark: [table]

[3] = Light resistance test of printed images with xenon lamp; settings: grade of color difference ΔE; ink with 6 parts dye on glossy photo paper; xenon lamp 0.36 W/m^2, 60% RH, 24° C., 50 h
Description: Prepare the ink composition according to the formula described in Table 1 containing the products obtained in the above embodiment as the magenta colorant, and filter the ink composition with a […] membrane filter to obtain the aqueous magenta ink composition of the present invention. Add triethanolamine to adjust the ink composition pH to 8˜10 and add deionized water to make the total volume to reach 100 parts by weight.
Use an ink-jet printer (Epson 270 manufactured by Epson Company), glossy photo paper (Epson) and the above described ink compositions for ink-jet printing.
Irradiate the printed glossy photo paper manufactured by Canon and Epson with Xenon-lamp Weathering Test Chamber ZG-P (manufactured by China Surui Company) at 60% RH and 24° C. with illuminance of 0.36 W/m^2 for 50 h, and check the color difference (ΔE) before and after the test. The color difference (ΔE) is calculated from the differences of values of L*, a*, b* before and after the test in the above described color measurement system (Unterlab) by the followings formula: ΔE=((difference of L*)^2+(difference of a*)^2+(difference of b*)^2)^1/2.
Three grades will be divided for the evaluation based on the following benchmark: […]

[4] = Evaluation of water solubility of the dye; settings: solubility of the dye in water
Description: (D) Evaluation of Water Solubility of the Dye (g/100 g Water)

Compound	Long-term stability of the dye in aqueous solvent systems [1]	Ozone resistance of printed images [2]	UV resistance of printed images [3]	Water solubility of the dye [4]
O=C([O-])CCCS(=O)(=O)c1ccc(S(=O)(=O)[O-])c(Nc2cc(S(=O)(=O)[O-])c3[nH]c(=O)c(C(=O)[O-])c4c3c2C(=O)c2ccccc2-4)c1.[Na+].[Na+].[Na+].[Na+] [Dm1]	∘	∘ (ΔE < 10)	∘ (ΔE < 10)	∘ (The solubility of the dye in water >30)
O=C([O-])CCCS(=O)(=O)c1ccc(S(=O)(=O)[O-])c(Nc2cc(S(=O)(=O)[O-])c3[nH]c(=O)c(C(=O)OCc4cccc([N+](=O)[O-])c4)c4c3c2C(=O)c2ccccc2-4)c1.[Na+].[Na+].[Na+] [Dm7]	∘	∘ (ΔE < 10)	∘ (ΔE < 10)	∘ (The solubility of the dye in water >30)
O=C([O-])CCCS(=O)(=O)c1cc(S(=O)(=O)[O-])c(Nc2cc(S(=O)(=O)[O-])c3[nH]c(=O)c(C(=O)OCc4cccc5ccccc45)c4c3c2C(=O)c2ccccc2-4)c(S(=O)(=O)[O-])c1.[Na+].[Na+].[Na+].[Na+] [Dp17]	∘	∘ (ΔE < 10)	∘ (ΔE < 10)	Δ (The solubility of the dye in water >15-20)
O=C([O-])CCCS(=O)(=O)c1cc(S(=O)(=O)[O-])c(Nc2cc(S(=O)(=O)[O-])c3[nH]c(=O)c(C(=O)OCc4ccccc4)c4c3c2C(=O)c2ccccc2-4)c(S(=O)(=O)[O-])c1.[Na+].[Na+].[Na+].[Na+] [Dp4]	∘	∘ (ΔE < 10)	∘ (ΔE < 10)	∘ (The solubility of the dye in water >30)
O=C(Nc1cc(S(=O)(=O)[O-])cc2cc(S(=O)(=O)[O-])c(N=Nc3ccc4cc(S(=O)(=O)CCOS(=O)(=O)[O-])ccc4c3S(=O)(=O)[O-])c(O)c12)c1ccccc1.[Na+].[Na+].[Na+].[Na+] [C.I. reactive red 180, reference compound]	Δ	x (ΔE > 20)	x (ΔE > 20)	–
Cc1ccc(COC(=O)c2c3c4c(c(Nc5cc(S(=O)(=O)CCCC(=O)[O-])ccc5S(=O)(=O)[O-])cc(S(=O)(=O)[O-])c4[nH]c2=O)C(=O)c2ccccc2-3)cc1.[Na+].[Na+].[Na+] [Dm5]	∘	∘ (ΔE < 10)	∘ (ΔE < 10)	∘ (The solubility of the dye in water >30)

Further lines, with some results ahead:

Long-term stability of the dye in aqueous solvent systems [1]	Ozone resistance of printed images [2]	UV resistance of printed images [3]	Compound	Water solubility of the dye [4]
∘	∘ (ΔE < 10)	∘ (ΔE < 10)	O=C([O-])CCCS(=O)(=O)c1cc(S(=O)(=O)[O-])c(Nc2cc(S(=O)(=O)[O-])c3[nH]c(=O)c(C(=O)OCc4cccc(Cl)c4)c4c3c2C(=O)c2ccccc2-4)c(S(=O)(=O)[O-])c1.[Na+].[Na+].[Na+].[Na+] [Dp10]	∘ (The solubility of the dye in water >30)
∘	∘ (ΔE < 10)	∘ (ΔE < 10)	O=C([O-])CCCS(=O)(=O)c1ccc(S(=O)(=O)[O-])c(Nc2cc(S(=O)(=O)[O-])c3[nH]c(=O)c(C(=O)OCc4ccccc4)c4c3c2C(=O)c2ccccc2-4)c1.[Na+].[Na+].[Na+] [Dm3]	∘ (The solubility of the dye in water >30)
Δ	∘ (ΔE < 10)	∘ (ΔE < 10)	Cn1c(=O)c(C(=O)OCc2cccc3ccccc23)c2c3c(c(Nc4ccc(S(=O)(=O)[O-])cc4S(=O)(=O)[O-])ccc31)C(=O)c1ccccc1-2.[Na+].[Na+] [Dye2, reference compound]	Δ (The solubility of the dye in water >15-20)
Δ	x (ΔE > 20)	x (ΔE > 20)	O=S(=O)([O-])c1cc(Nc2nc(Nc3ccc(/C=C/c4ccc(Nc5nc(Nc6cc(S(=O)(=O)[O-])cc7cc(S(=O)(=O)[O-])c(N=Nc8ccccc8)c(O)c67)nc(N6CCOCC6)n5)cc4S(=O)(=O)[O-])c(S(=O)(=O)[O-])c3)nc(N3CCOCC3)n2)c2c(O)c(N=Nc3ccccc3)c(S(=O)(=O)[O-])cc2c1.[Na+].[Na+].[Na+].[Na+].[Na+].[Na+] [C.I. direct red 227, reference compound]	x (The solubility of the dye in water <15)
∘	∘ (ΔE < 10)	∘ (ΔE < 10)	O=C([O-])CCCS(=O)(=O)c1cc(S(=O)(=O)[O-])c(Nc2cc(S(=O)(=O)[O-])c3[nH]c(=O)c(C(=O)OCc4cccc(S(=O)(=O)[O-])c4)c4c3c2C(=O)c2ccccc2-4)c(S(=O)(=O)[O-])c1.[Na+].[Na+].[Na+].[Na+].[Na+] [Dp14]	∘ (The solubility of the dye in water >30)
∘	∘ (ΔE < 10)	∘ (ΔE < 10)	O=C([O-])CCCS(=O)(=O)c1cc(S(=O)(=O)[O-])c(Nc2cc(S(=O)(=O)[O-])c3[nH]c(=O)c(C(=O)[O-])c4c3c2C(=O)c2ccccc2-4)c(S(=O)(=O)[O-])c1.[Na+].[Na+].[Na+].[Na+].[Na+] [Dp2]	∘ (The solubility of the dye in water >30)
